In US12595251B2, “Amidines and amidine analogs for the treatment of bacterial infections and potentiation antibiotics” (GEORGIA STATE UNIVERSITY RESEARCH FOUNDATION, INC., priority 2018, dated 2026):
≈ marks a conversion by molar mass, not a printed value. Counter-ions that a name gives are not always drawn.

System: NDM-1 over-expressing E. coli
Experiment: microbe, parasite or virus in culture
Format: cell-based, Escherichia coli
Conditions: Escherichia coli, antibiotic alone, read-out: MIC of AB only

Compound | MIC
CC[C@H]1OC(=O)[C@H](C)[C@@H](O[C@H]2C[C@@](C)(OC)[C@@H](O)[C@H](C)O2)[C@H](C)[C@@H](O[C@@H]2O[C@H](C)C[C@H](N(C)C)[C@H]2O)[C@](C)(OC)C[C@@H](C)C(=O)[C@H](C)[C@@H](O)[C@]1(C)O [Clarithromycin, clarithromycin] | 24 µg/mL

Same assay, conditions: antibiotic plus Compound C 5 μg/ml

Compound | FIC | MIC of AB with Compound C (5 μg/ml)
CC[C@H]1OC(=O)[C@H](C)[C@@H](O[C@H]2C[C@@](C)(OC)[C@@H](O)[C@H](C)O2)[C@H](C)[C@@H](O[C@@H]2O[C@H](C)C[C@H](N(C)C)[C@H]2O)[C@](C)(OC)C[C@@H](C)C(=O)[C@H](C)[C@@H](O)[C@]1(C)O [Clarithromycin, clarithromycin] | 0.12 | 0.4 µg/mL

System: wild-type E. coli
Experiment: Sensitization of wild-type E. coli toward antibiotics (MIC of antibiotic with/without sensitizer)
Format: cell-based, Escherichia coli
Conditions: not given
Description: Bacteria were cultured with the antibiotic at various concentrations in the presence or absence of bacterial sensitizer for 24 hours at 37° C. Bacterial growth density was determined by measuring OD600 (absorbance measured at a wavelength of 600 nm). […]
The formula for calculating FIC is shown below: […]

Compound | Minimal concentration achieving 10-fold sensitization of E. coli toward erythromycin
N=C(N)c1ccc(OCCCCCOc2ccc(C(=N)N)cc2)cc1 [Pentamidine, pentamidine] | 40 μg/ml

System: M. smegmatis
Experiment: Antibacterial activity against M. smegmatis (MIC, OD600, 48 h)
Format: cell-based, Mycobacterium smegmatis
Conditions: Mycolicibacterium smegmatis, MIC = 90% growth inhibition, 7H9 media, NA=no activity

Compound | MIC
N=C(N)c1ccc(OCc2cccc(COc3ccc(C(=N)N)cc3F)c2F)c(F)c1 [drawing 805] | 12 µM (≈ 5.14 µg/mL)
Cc1cc(COc2ccc(C3=NCCN3)cc2)cc(COc2ccc(C3=NCCN3)cc2)c1 [drawing 826] | 25 µM (≈ 11 µg/mL)
CC(C)NC(=N)c1ccc(OCc2cccc(COc3ccc(C(=N)NC(C)C)cc3F)c2F)c(F)c1 [drawing 831] | 12 µM (≈ 6.15 µg/mL)
N=C(N)c1ccc(OCc2ccc(COc3ccc(C(=N)N)cc3)cc2)cc1 [drawing 814] | 3 µM (≈ 1.12 µg/mL)
Cc1cc(COc2ccc(C(=N)NC(C)C)cc2)cc(COc2ccc(C(=N)NC(C)C)cc2)c1 [drawing 815] | 3 µM (≈ 1.42 µg/mL)
Cc1cc(CCc2ccc(C(=N)N)cc2)cc(CCc2ccc(C(=N)N)cc2)c1 [drawing 829] | 6 to 12 µM (≈ 2.31 to 4.61 µg/mL)
Cc1cc(COc2ccc(C(=N)N)cc2)cc(COc2ccc(C(=N)N)cc2)c1 [drawing 809] | 12 µM (≈ 4.66 µg/mL)
N=C(N)c1ccc(OCc2cccc(COc3ccc(C(=N)N)cc3)c2F)cc1 [drawing 806] | 12 µM (≈ 4.71 µg/mL)
COc1cc(C2=NCCN2)ccc1OCc1cccc(COc2ccc(C3=NCCN3)cc2OC)c1F [drawing 813] | 25 µM (≈ 12.6 µg/mL)
N=C(N)c1ccc(OCCCCCCOc2ccc(C(=N)N)cc2)cc1 [drawing 825] | 6 µM (≈ 2.13 µg/mL)
N=C(N)c1ccc(OCc2cc(COc3ccc(C(=N)N)cc3)cc(COc3ccc(C(=N)N)cc3)c2)cc1 [drawing 828] | 3 to 6 µM (≈ 1.57 to 3.14 µg/mL)
N=C(N)c1ccc2nc(-c3ccc(OCC(F)(F)C(F)(F)COc4ccc(-c5nc6ccc(C(=N)N)cc6[nH]5)cc4)cc3)[nH]c2c1 [drawing 801] | 6 µM (≈ 3.78 µg/mL)
N=C(N)c1ccc(OCc2cccc(COc3ccc(C(=N)N)cc3)c2)cc1 [drawing 821] | 12 µM (≈ 4.49 µg/mL)
N=C(N)c1ccc(OCc2cccc(COc3ccc(C(=N)N)cc3)n2)cc1 [drawing 823] | 12 µM (≈ 4.51 µg/mL)
Fc1c(COc2ccc(C3=NCCN3)cc2)cccc1COc1ccc(C2=NCCN2)cc1 [drawing 811] | 25 µM (≈ 11.1 µg/mL)
c1cc(COc2ccc(C3=NCCN3)cc2)cc(COc2ccc(C3=NCCN3)cc2)c1 [drawing 810] | 12 µM (≈ 5.12 µg/mL)
Cn1c(-c2ccc(-c3ccc(C(=N)N)cc3)s2)nc2cc(-c3ccc(C(=N)N)cc3)ccc21 [drawing 819] | 6 µM (≈ 2.7 µg/mL)
Cc1cc(-c2nc3cc(C(=N)N)ccc3n2C)sc1-c1ccc(OCCCCOc2ccc(C(=N)N)cc2)cc1 [drawing 822] | 3 to 6 µM (≈ 1.66 to 3.32 µg/mL)
COc1cc(C(=N)N)ccc1OCc1cc(C)cc(COc2ccc(C(=N)N)cc2OC)c1 [drawing 816] | 25 µM (≈ 11.2 µg/mL)
CC(C)NC(=N)c1ccc(OCc2cccc(COc3ccc(C(=N)NC(C)C)cc3)c2F)cc1 [drawing 830] | 3 µM (≈ 1.43 µg/mL)
N=C(N)c1ccc(OCc2ccc(-c3ccc(C(=N)N)cc3)cc2)cc1 [drawing 804] | 6 µM (≈ 2.07 µg/mL)
COc1cc(C(=N)N)ccc1OCc1cccc(COc2ccc(C(=N)N)cc2OC)c1F [drawing 817] | 6 µM (≈ 2.71 µg/mL)
CC(C)(C)c1cc(COc2ccc(C(=N)N)cc2)cc(COc2ccc(C(=N)N)cc2)c1 [drawing 818] | 6 µM (≈ 2.58 µg/mL)

System: H9c2 cells
Experiment: Cytotoxicity in H9c2 cells (CCK-8, 24 h)
Format: cell-based
Conditions: not given
Description: H9c2 (ATCC®R-1446™) cells Were used in the studies. The H9c2 cells were maintained in DMEM (Dulbeccoa's Modified Eagle's Medium) supplemented with 10% fetal bovine serum (Mid Sci; S01520HI) and 1% penicillin-streptomycin (Sigma-Aldrich; P4333) at 37° C. with 5% CO2. The H9c2 cells were seeded in 96-well plate one day before the experiment. Different concentrations of di-amidine compounds were added into the H9c2 cells. The cells were then incubated with the compounds for 24 h at 37° C. with 5% CO2. The cell viability was tested by the CCK-8. Specifically, after 24 h incubation, 10 μL CCK-8 was added to each well. After 3 h incubation at 37° C., the absorbance at 450 nm was recorded by a plate reader. The cytoxicity in HEK293 and 3T3 cells was measured using the same procedure. Data is shown in Table 5 (NT=not toxic; --=not tested).

Compound | H9c2 CC^50
N=C(N)c1ccc(OCc2ccc(-c3ccc(C(=N)N)cc3)cc2)cc1 [drawing 852] | 50 µM
N=C(N)c1ccc(OCc2cccc(COc3ccc(C(=N)N)cc3)c2F)cc1 [drawing 859] | 50 µM
N=C(N)c1ccc2[nH]c(-c3ccc(-c4ccc(-c5ccc(-c6ccc(-c7nc8cc(C(=N)N)ccc8[nH]7)cc6)s5)s4)cc3)nc2c1 [drawing 849] | 50 µM
N=C(N)c1ccc(Oc2ccc(C(=N)N)cc2)cc1 [drawing 851] | 50 µM
Cn1c(CCCCc2nc3ccc(C(=N)N)cc3n2C)nc2ccc(C(=N)N)cc21 [drawing 850] | 50 µM
Cn1c(CCc2nc3cc(C(=N)N)ccc3n2C)nc2cc(C(=N)N)ccc21 [drawing 860] | 50 µM
COc1cc(C2=NCCN2)ccc1OCc1cccc(COc2ccc(C3=NCCN3)cc2OC)c1F [drawing 868] | 50 µM
N=C(N)c1ccc(OCc2cccc(COc3ccc(C(N)=O)cc3)n2)cc1 | 50 µM
N=C(N)c1ccc2nc(-c3ccc(OCC(F)(F)C(F)(F)COc4ccc(-c5nc6ccc(C(=N)N)cc6[nH]5)cc4)cc3)[nH]c2c1 [drawing 847] | 50 µM
Fc1c(COc2ccc(C3=NCCN3)cc2)cccc1COc1ccc(C2=NCCN2)cc1 [drawing 866] | 25 µM
c1cc(COc2ccc(C3=NCCN3)cc2)cc(COc2ccc(C3=NCCN3)cc2)c1 [drawing 865] | <12 µM
N=C(N)c1ccc(OCc2cccc(COc3ccc(C(=N)N)cc3)c2)cc1 [drawing 853] | 50 µM
Fc1cc(C2=NCCN2)ccc1OCc1cccc(COc2ccc(C3=NCCN3)cc2F)c1F | 50 µM
N=C(N)c1ccc(OCCCCCCOc2ccc(C(=N)N)cc2)cc1 [drawing 862] | <5 µM
CC(C)(C)c1cc(COc2ccc(C(=N)N)cc2F)cc(COc2ccc(C(=N)N)cc2F)c1 [drawing 883] | 25 µM
N=C(N)c1ccc(OCCCCCCCCOc2ccc(C(=N)N)cc2)cc1 [drawing 855] | <5 µM
CC(C)(C)c1cc(COc2ccc(C(=N)N)cc2)cc(COc2ccc(C(=N)N)cc2)c1 [drawing 873] | 25 µM
N=C(N)c1ccc(OCOc2ccc(C(=N)N)cc2)cc1 [drawing 858] | 50 µM
N=C(N)c1ccc(COc2cc(OCc3ccc(C(=N)N)cc3)cc(C(F)(F)F)c2)cc1 [drawing 888] | 50 µM
Cc1cc(COc2ccc(NC(=N)N)cc2)cc(COc2ccc(NC(=N)N)cc2)c1 | 100 µM
Cn1c(-c2ccc(-c3ccc(C(=N)N)cc3)s2)nc2cc(-c3ccc(C(=N)N)cc3)ccc21 [drawing 848] | 50 µM
N=C(N)c1ccc(OCc2cccc(COc3ccc(C(=N)N)cc3)n2)cc1 [drawing 857] | 50 µM
CCCCc1cc(OCc2ccc(C(=N)N)cc2)cc(OCc2ccc(C(=N)N)cc2)c1 [drawing 887] | 25 µM
COc1cc(C(=N)N)ccc1OCc1cccc(COc2ccc(C(=N)N)cc2OC)c1F [drawing 872] | 12.5 µM
Cc1cc(-c2nc3cc(C(=N)N)ccc3n2C)sc1-c1ccc(OCCCCOc2ccc(C(=N)N)cc2)cc1 [drawing 856] | 50 µM

System: E. coli
Experiment: Sensitization of E. coli to erythromycin (sensitization fold from IC90, OD600, 20 h)
Format: cell-based, Escherichia coli
Conditions: erythromycin; compound at 10 μM
Description: E. coli bacteria were cultured in Miller's broth at 37° C. overnight prior to treatment. B. subtilis bacteria were cultured in nutrient broth at 37° C. overnight prior to treatment. […] Bacterial density was measured based on OD600.

Compound | SF (E. coli) at 10 μM
CCCCc1cc(OCc2ccc(C(=N)N)cc2)cc(OCc2ccc(C(=N)N)cc2)c1 [drawing 749] | 10 μM > 32 fold
N=C(N)c1ccc(COc2cc(OCc3ccc(C(=N)N)cc3)cc(C(F)(F)F)c2)cc1 [drawing 750] | 10 μM > 32 fold

Same assay, conditions: erythromycin; compound at 12.5 μM; NA=no activity

Compound | SF (E. coli) at 12.5 μM
CC(C)(C)c1cc(COc2ccc(C(=N)N)cc2)cc(COc2ccc(C(=N)N)cc2)c1 [drawing 732] | 4-fold at 12.5 μM

Same assay, conditions: erythromycin; compound at 20 μM

Compound | SF (E. coli) at 20 μM
COc1cc(OCc2ccc(C(=N)N)cc2)cc(OCc2ccc(C(=N)N)cc2)c1 | No effect at 20 μM
CO/N=C(\N)c1ccc(OCc2cc(C)cc(COc3ccc(/C(N)=N\OC)cc3)c2)cc1 [drawing 748] | 4-fold at 20 μM

Same assay, conditions: erythromycin; compound at 25 μM; NA=no activity

Compound | SF (E. coli) at 25 μM
Cc1cc(COc2ccc(C(=N)N)cc2F)cc(COc2ccc(C(=N)N)cc2F)c1 [drawing 747] | 64-fold at 25 μM

Same assay, conditions: general statement on amidine substitution or ring restraint

Compound | Ability to sensitize Gram-negative bacteria (while preserving ability to sensitize some Gram-positive bacteria)
Cc1cc(COc2ccc(C(=N)NC(C)C)cc2)cc(COc2ccc(C(=N)NC(C)C)cc2)c1 [Compound C-3, 1,3-Bis {(4-isopropylamidino)-phenoxymethyl}-5-methylbenzene dihydrochloride] | greatly decrease, or even abolish

Same assay, conditions: sensitization fold = IC90 of erythromycin without/with compound; compound concentration not given; NA=no activity, T=toxic

Compound | SF (E. coli)
Cc1cc(-c2nc3cc(C(=N)N)ccc3n2C)sc1-c1ccc(OCCCCOc2ccc(C(=N)N)cc2)cc1 [drawing 715] | <2
N=C(N)c1ccc(OCc2cccc(COc3ccc(C(=N)N)cc3F)c2F)c(F)c1 [drawing 713] | 6
N=C(N)c1ccc(OCc2ccc(-c3ccc(C(=N)N)cc3)cc2)cc1 [drawing 711] | <2
N=C(N)c1ccc2nc(-c3ccc(OCC(F)(F)C(F)(F)COc4ccc(-c5nc6ccc(C(=N)N)cc6[nH]5)cc4)cc3)[nH]c2c1 [drawing 706] | <2
N=C(N)c1ccc(OCc2cccc(COc3ccc(C(=N)N)cc3)c2F)cc1 [drawing 718] | <2
N=C(N)c1ccc(OCc2cccc(COc3ccc(C(=N)N)cc3)c2)cc1 [drawing 712] | <2
